pEC50: −log10 of the molar value. Several values for one entry are separate records, joined by “and”; a condition that tells them apart may be missing. Identical values can stand only once. Counter-ions that a name gives are not always drawn. Like-named read-outs stand apart in the source and are kept apart here. Values belong to the compound of their own block, whether it stands above or below them.
Assays:
P. falc DD2 = test: Biological activity EC50, P. falc DD2; assay type: cell-based; conditions: Plasmodium falciparum; Target (Cell Line): P. falc DD2
P. falc = test: Biological activity EC50, P. falc (strain not given); assay type: cell-based; conditions: Plasmodium falciparum; Target (Cell Line): P. falc
PC-3 = test: Biological activity EC50, PC-3; assay type: cell-based; conditions: Homo sapiens; Target (Cell Line): PC-3
MB-MDA-231 = test: Biological activity EC50, MB-MDA-231; assay type: cell-based; conditions: for pEC50: Target (Cell Line): MB-MDA-231, read-out: Activity EC50
HeLa = test: Biological activity EC50, HeLa; assay type: cell-based; conditions: Homo sapiens; Target (Cell Line): HeLa
MCF-7 = test: Biological activity EC50, MCF-7; assay type: cell-based; conditions: Homo sapiens, MCF7; Target (Cell Line): MCF-7
P. falc W2 = test: Biological activity EC50, P. falc W2; assay type: cell-based; conditions: Plasmodium falciparum; for EC50: read-out: Activity EC50 (nM); for pEC50: Target (Cell Line): P. falc W2, read-out: Activity EC50
U87MG = test: Biological activity EC50, U87MG; assay type: cell-based; conditions: Homo sapiens, U-87 MG; Target (Cell Line): U87MG
IMR90 = test: Biological activity EC50, IMR90; assay type: cell-based; conditions: Homo sapiens, IMR-90; Target (Cell Line): IMR90
P. falc D10 = test: Biological activity EC50, P. falc D10; assay type: cell-based, P. falciparum; conditions: Target (Cell Line): P. falc D10
P. falc HB3 = test: Biological activity EC50, P. falc HB3; assay type: cell-based; conditions: Plasmodium falciparum; Target (Cell Line): P. falc HB3
P. falc 3D7 = test: Biological activity EC50, P. falc 3D7; assay type: cell-based; conditions: Plasmodium falciparum; Target (Cell Line): P. falc 3D7

Structure (SMILES): O=C(Nc1cc(Cl)ccc1Cl)OC1CCCC2(C1)OOC1(O2)C2CC3CC(C2)CC1C3 (stereo not drawn) [Example 1, dispiro[adamantane-2,2′-[1,3,5]trioxolane-4′,1″-cyclohexane]-3″-yl N-(2,5-dichlorophenyl)carbamate]
- pEC50 (P. falc): 7.84

Structure (SMILES): COc1ccc(-c2cnnn2-c2cc(OC)c(OC)c(OC)c2)cc1N [Literature Compound B, reference compound]
- pEC50 (PC-3): 8.05
- EC50 (MB-MDA-231; read-out: Activity EC50 (nM)): 10 nM
- pEC50 (HeLa): 7.96
- pEC50 (MCF-7): 8.00
- EC50 (P. falc W2): > 1000 nM

Structure (SMILES): COc1ccc(/C=C/C(=O)N2CC(CCl)c3c2cc(NC(=O)OC2CCCC4(C2)OOC2(O4)C4CC5CC(C4)CC2C5)c2ccccc32)cc1 (stereo not drawn) [Example 14, dispiro[adamantane-2,2′-[1,3,5]trioxolane-4′,1″-cyclohexane]-3″-yl N-[1-(chloromethyl)-3-[(2E)-3-(4-methoxyphenyl)prop-2-enoyl]-1H,2H,3H-benzo[e]indol-5-yl]carbamate]
- pEC50 (U87MG): 7.40
- pEC50 (HeLa): 6.98
- pEC50 (IMR90): 7.00
- pEC50 (P. falc W2): 8.55

Structure (SMILES): O=C1CCCC2(C1)OOC1(O2)C2CC3CC(C2)CC1C3 (stereo not drawn) [Cmpd 2b, dispiro[adamantane-2,2′-[1,3,5]trioxolane-4′,1″-cyclohexane]-3″-one]
- pEC50 (P. falc): 6.39

Structure (SMILES): O=C(Nc1cc(Cl)ccc1Cl)O[C@@H]1C[C@H](OC(=O)Nc2cc(Cl)ccc2Cl)CC2(C1)OOC1(O2)C2CC3CC(C2)CC1C3 (relative stereo) [Example 4, (3″R*,5″S*)-5″-{[(2,5-dichlorophenyl)carbamoyl]oxy}dispiro[adamantane-2,2′-[1,3,5]trioxolane-4′,1″-cyclohexane]-3″-yl N-(2,5-dichlorophenyl)carbamate]
- pEC50 (P. falc): 6.83

Structure (SMILES): CCCCC(C(=O)COc1c(F)c(F)cc(F)c1F)n1cc(C2(N)CCCCC2)nn1 (stereo not drawn) [Literature Compound A, reference compound]
- pEC50 (P. falc D10; Plasmodium falciparum): 7.15

Structure (SMILES): CCCCN(CCCC)CCC(OC(=O)OC1CCCC2(C1)OOC1(O2)C2CC3CC(C2)CC1C3)c1cc2c(Cl)cc(Cl)cc2c2cc(C(F)(F)F)ccc12 (stereo not drawn) [Example 8, 3-(dibutylamino)-1-[1,3-dichloro-6-(trifluoromethyl)phenanthren-9-yl]propyl dispiro[adamantane-2,2′-[1,3,5]trioxolane-4′,1″-cyclohexane]-3″-yl carbonate]
- pEC50 (P. falc HB3): 8.10
- pEC50 (P. falc DD2): 7.82
- pEC50 (P. falc 3D7): 7.68

Structure (SMILES): C=CC1(OC(=O)Nc2cc(Cl)ccc2Cl)CCCC2(C1)OOC1(O2)C2CC3CC(C2)CC1C3 (stereo not drawn) [Example 2, 3″-ethenyldispiro[adamantane-2,2′-[1,3,5]trioxolane-4′,1′-cyclohexane]-3″-yl N-(2,5-dichlorophenyl)carbamate]
- pEC50 (P. falc): 7.97

Structure (SMILES): CC(C)(C)[C@H]1C[C@H](OC(=O)Nc2cc(Cl)ccc2Cl)CC2(C1)OOC1(O2)C2CC3CC(C2)CC1C3 (stereo partly drawn) [Example 3, (3″S,5″S)-5″-tert-butyldispiro[adamantane-2,2′-trioxolane-4′,1″-cyclohexane]-3″-yl N-(2,5-dichlorophenyl)carbamate]
- pEC50 (P. falc): 7.18

Structure (SMILES): COc1ccc(/C=C/C(=O)N2CC(CCl)c3c2cc(N)c2ccccc32)cc1 (stereo not drawn) [Literature Compound C, reference compound]
- pEC50 (U87MG): 8.30
- pEC50 (HeLa): 7.96
- pEC50 (IMR90): 8.52
- EC50 (P. falc W2): 0.45 nM

Structure (SMILES): COc1ccc(-c2cnnn2-c2cc(OC)c(OC)c(OC)c2)cc1NC(=O)OC1CCCC2(C1)OCC1(O2)C2CC3CC(C2)CC1C3 (stereo not drawn) [Example 12, dispiro[adamantane-2,4′-[1,3]dioxolane-2′,1″-cyclohexane]-3″-yl N-{2-methoxy-S-[1-(3,4,5-trimethoxyphenyl)-1H-1,2,3-triazol-5-yl]phenyl}carbamate]
- pEC50 (PC-3): < 6.00
- pEC50 (HeLa): < 6.00
- pEC50 (MCF-7): < 6.00
- pEC50 (P. falc W2): < 6.00

Structure (SMILES): COc1ccc(/C=C/C(=O)N2CC(CCl)c3c2cc(NC(=O)OC2CCCC4(C2)OCC2(O4)C4CC5CC(C4)CC2C5)c2ccccc32)cc1 (stereo not drawn) [Example 15, dispiro[adamantane-2,4′-[1,3]dioxolane-2′,1″-cyclohexane]-3″-yl N-[1-(chloromethyl)-3-[(2E)-3-(4-methoxyphenyl)prop-2-enoyl]-1H,2H,3H-benzo[e]indol-5-yl]carbamate]
- pEC50 (HeLa): < 6.00
- pEC50 (IMR90): < 6.00
- pEC50 (P. falc W2): 7.39

Continued, values first:

- pEC50 (P. falc DD2): 7.27
Structure (SMILES): CN(C)c1cccc2c(S(=O)(=O)N3CCC4(CC3)OOC3(O4)C4CC5CC(C4)CC3C5)cccc12 (stereo not drawn) [Example 21, 5-({dispiro[adamantane-2,2′-[1,3,5]trioxolane-4′,4″-piperidine]-1″-yl}sulfonyl)-N,N-dimethylnaphthalen-1-amine]

- pEC50 (PC-3): 7.59
- pEC50 (MB-MDA-231): 7.38
- pEC50 (HeLa): 7.24
- pEC50 (MCF-7): 7.62
- pEC50 (P. falc W2): 7.47
Structure (SMILES): COc1ccc(-c2cnnn2-c2cc(OC)c(OC)c(OC)c2)cc1NC(=O)OC1CCCC2(C1)OOC1(O2)C2CC3CC(C2)CC1C3 (stereo not drawn) [Example 11, dispiro[adamantane-2,2′-[1,3,5]trioxolane-4′,1″-cyclohexane]-3″-yl N-{2-methoxy-5-[1-(3,4,5-trimethoxyphenyl)-1H-1,2,3-triazol-5-yl]phenyl}carbamate]

- pEC50 (P. falc W2): 8.30
Structure (SMILES): CC(C)(N)CNC(=O)OC1CCCC2(C1)OOC1(O2)C2CC3CC(C2)CC1C3 (stereo not drawn) [Example 23, Dispiro[adamantane-2,2′-[1,3,5]trioxolane-4′,1″-cyclohexane]-3″-yl N-(2-amino-2-methylpropyl)carbamate]

- pEC50 (P. falc W2): 7.77
Structure (SMILES): O=C(OC1CCCC2(C1)OOC1(O2)C2CC3CC(C2)CC1C3)N1CCCCC1[C@@H](O)c1cc(C(F)(F)F)nc2c(C(F)(F)F)cccc12 (stereo partly drawn) [Example 6, dispiro[adamantane-2,2′-[1,3,5]trioxolane-4′,1″-cyclohexane]-3″-v 2-[(S)-[2,8-bis(trifluoromethyl)quinolin-4-yl](hydroxy)methyl]piperidine-1-carboxylate]

- pEC50 (P. falc D10; Plasmodium falciparum): 7.54
- pEC50 (P. falc D10): 7.80 and 7.63
Structure (SMILES): CCCCC(C(=O)COc1c(F)c(F)cc(F)c1F)n1cc(C2(NC(=O)OC3CCCC4(C3)OOC3(O4)C4CC5CC(C4)CC3C5)CCCCC2)nn1 (stereo not drawn) [Example 9, dispiro[adamantane-2,2′-[1,3,5]trioxolane-4′,1″-cyclohexane]-3″-yl N-(1-{1-[2-oxo-1-(2,3,5,6-tetrafluorophenoxy)heptan-3-yl]-1H-1,2,3-triazol-4-yl}cyclohexyl)carbamate]

- pEC50 (P. falc HB3): 7.03
- pEC50 (P. falc DD2): 6.73
- pEC50 (P. falc 3D7): 6.73
Structure (SMILES): O=C1C(O)=C(C2CCC3(CC2)OOC2(O3)C3CC4CC(C3)CC2C4)C(=O)c2ccccc21 (stereo not drawn) [Example 10, 2-{dispiro[adamantane-2,2′-[1,3,5]trioxolane-4′,1″-cyclohexane]-4″-yl}-3-hydroxy-1,4-dihydronaphthalene-1,4-dione]

- pEC50 (P. falc D10; Plasmodium falciparum): 7.60
Structure (SMILES): O=C(Oc1ccc2ccc(=O)oc2c1)OC1CCCC2(C1)OOC1(O2)C2CC3CC(C2)CC1C3 (stereo not drawn) [Example 17, dispiro[adamantane-2,2′-[1,3,5]trioxolane-4′,1″-cyclohexane]-3″-yl 2-oxo-2H-chromen-7-yl carbonate]

- pEC50 (P. falc W2): 8.23
Structure (SMILES): CCNC(=O)OC1CCCC2(C1)OOC1(O2)C2CC3CC(C2)CC1C3 (stereo not drawn) [Example 5, dispiro[adamantane-2,2′-[1,3,5]trioxolane-4′,1″-cyclohexane]-3″-yl N-ethylcarbamate]

- pEC50 (MB-MDA-231): 6.24
- pEC50 (P. falc DD2): 7.60
- pEC50 (HeLa): 6.11
- pEC50 (IMR90): 5.77
Structure (SMILES): COc1ccc(C[C@H](N)C(=O)N[C@H]2[C@@H](O)[C@H](n3cnc4c(N(C)C)ncnc43)O[C@@H]2CO)cc1 [Puromycin dihydrochloride, reference compound]

- pEC50 (U87MG): < 6.00
- pEC50 (PC-3): < 6.00
- pEC50 (MB-MDA-231): < 6.00
- pEC50 (HeLa): < 6.00
- pEC50 (MCF-7): < 6.00
- pEC50 (P. falc W2): < 6.00
Structure (SMILES): COc1ccc(-c2cnnn2-c2cc(OC)c(OC)c(OC)c2)cc1NC(=O)OC1CCCC2(COC3(O2)C2CC4CC(C2)CC3C4)C1 (stereo not drawn) [Example 13, dispiro[adamantane-2,2′-[1,3]dioxolane-4′,1″-cyclohexane]-3″-yl N-{2-methoxy-5-[1-(3,4,5-trimethoxyphenyl)-1H-1,2,3-triazol-5-yl]phenyl}carbamate]

- pEC50 (P. falc W2): 7.57
Structure (SMILES): COC1CCC[C@]2(C1)OOC1(O2)C2CC3CC(C2)CC1C3 (stereo partly drawn) [Example 25]

- pEC50 (P. falc DD2): 7.94
Structure (SMILES): CN(C)c1cccc2c(S(=O)(=O)NC34CC5CC(C3)C3(OOC6(CCCCC6)O3)C(C5)C4)cccc12 (stereo not drawn) [Example 20, 5-(dimethylamino)-N-{dispiro[adamantane-2,2′-trioxolane-4′,1″-cyclohexane]-7-yl}naphthalene-1-sulfonamide]

- pEC50 (MB-MDA-231): 5.28
- pEC50 (P. falc DD2): 7.90
- pEC50 (HeLa): 5.49
- pEC50 (IMR90): 5.16
Structure (SMILES): COc1ccc(C[C@H](NC(=O)OC2CCCC3(C2)OOC2(O3)C3CC4CC(C3)CC2C4)C(=O)N[C@H]2[C@@H](O)[C@H](n3cnc4c(N(C)C)ncnc43)O[C@@H]2CO)cc1 (stereo partly drawn) [Example 22, dispiro[adamantane-2,2′-[1,3,5]trioxolane-4′,1″-cyclohexane]-3″-yl N-[(1S)-1-{[(2S,3S,4R,5R)-5-[6-(dimethylamino)-9H-purin-9-yl]-4-hydroxy-2-(hydroxymethyl)oxolan-3-yl]carbamoyl}-2-(4-methoxyphenyl)ethyl]carbamate]

From patent US11014955B2, “Cyclic peroxides as prodrugs for selective delivery of agents” (THE REGENTS OF THE UNIVERSITY OF CALIFORNIA, priority 2014, dated 2021)
